How the values were obtained:
[1] = target: T1, Steroid 5-alpha-reductase (Rattus norvegicus, UniProt P24008+P31214); assay: In vitro inhibitory activity against rat testosterone 5 alpha reductase was determined; assay type: protein assay
T1 sequence (P24008 whole entry): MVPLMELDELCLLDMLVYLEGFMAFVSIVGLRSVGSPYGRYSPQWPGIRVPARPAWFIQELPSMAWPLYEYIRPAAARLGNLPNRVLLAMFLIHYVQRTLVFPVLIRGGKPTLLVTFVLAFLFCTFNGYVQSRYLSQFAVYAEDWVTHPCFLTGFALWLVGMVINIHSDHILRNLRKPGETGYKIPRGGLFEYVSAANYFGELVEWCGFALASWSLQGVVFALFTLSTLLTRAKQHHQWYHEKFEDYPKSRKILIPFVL
T1 sequence (P31214 whole entry): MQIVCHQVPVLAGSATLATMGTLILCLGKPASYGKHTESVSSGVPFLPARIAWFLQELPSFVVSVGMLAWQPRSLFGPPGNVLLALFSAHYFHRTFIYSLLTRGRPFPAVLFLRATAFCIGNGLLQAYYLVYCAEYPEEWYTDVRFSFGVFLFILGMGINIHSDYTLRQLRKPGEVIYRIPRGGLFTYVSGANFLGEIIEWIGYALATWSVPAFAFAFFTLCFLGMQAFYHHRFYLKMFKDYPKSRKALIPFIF

[2] = target: T2, 3-oxo-5-alpha-steroid 4-dehydrogenase 2 (Homo sapiens, UniProt P31213); assay: In vitro inhibitory activity against human Steroid 5-alpha-reductase type 2 in COS-1 cells was determined; assay type: cell-based
T2 sequence (P31213 whole entry): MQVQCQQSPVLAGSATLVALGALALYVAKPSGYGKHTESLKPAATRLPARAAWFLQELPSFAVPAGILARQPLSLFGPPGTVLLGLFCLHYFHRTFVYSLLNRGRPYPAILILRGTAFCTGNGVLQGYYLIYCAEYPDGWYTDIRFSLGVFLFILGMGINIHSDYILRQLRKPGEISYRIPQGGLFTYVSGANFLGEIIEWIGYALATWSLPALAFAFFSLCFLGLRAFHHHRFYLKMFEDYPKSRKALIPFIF

[3] = target: T3, 3-oxo-5-alpha-steroid 4-dehydrogenase 1 (Homo sapiens, UniProt P18405); assay: In vitro inhibitory activity against human Steroid 5-alpha-reductase type 1 in COS-1 cells was determined; assay type: cell-based
T3 sequence (P18405 whole entry): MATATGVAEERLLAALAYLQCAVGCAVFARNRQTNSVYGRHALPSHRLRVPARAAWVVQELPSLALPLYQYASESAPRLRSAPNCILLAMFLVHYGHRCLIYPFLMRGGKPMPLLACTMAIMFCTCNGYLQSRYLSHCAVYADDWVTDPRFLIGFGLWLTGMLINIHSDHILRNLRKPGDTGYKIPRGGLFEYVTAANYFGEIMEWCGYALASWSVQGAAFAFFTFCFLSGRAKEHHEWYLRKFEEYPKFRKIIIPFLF

SMILES | IC50 [1] [nM] | IC50 [2] [nM] | IC50 [3] [nM]
COc1ccc(C(NC(=O)c2ccc3oc(-c4ccccc4OCCCC(=O)O)cc3c2)c2ccc(OC)cc2)cc1 | 26.3 |  | 
O=C(O)CCCOc1ccccc1-c1cc2cc(C(=O)NC(c3ccc(F)cc3)c3ccc(F)cc3)ccc2o1 | 279 |  | 
O=C(O)CCCOc1ccccc1-c1cc2cc(C(=O)NC(c3ccccc3)c3ccccc3)ccc2o1 | 155 | > 100000 | 310
COc1ccc(C(NC(=O)c2ccc3cc(-c4ccccc4OCCCC(=O)O)oc3c2)c2ccc(OC)cc2)cc1 | 35.5 | 930 | 130
O=C(O)CCCOc1ccccc1-c1cc2ccc(C(=O)NC(c3ccc(F)cc3)c3ccc(F)cc3)cc2o1 | 37.9 | 340 | 50
O=C(O)CCCOc1ccccc1-c1cc2ccc(C(=O)NC(c3ccccc3)c3ccccc3)cc2o1 | 28.5 | 270 | 62
CC(C)Cc1ccc(C(Nc2cccc(C(=O)c3cn(CCCC(=O)O)c4ccccc34)c2)c2ccc(CC(C)C)cc2)cc1 | 118 | 11 | 3

— ChEMBL document CHEMBL1131643, “Synthesis and 5 alpha-reductase inhibitory activities of benzofuran derivatives with a carbamoyl group” (Bioorg Med Chem Lett, 1998)
